Here are results for 13 compounds from patent US7998995B2 (Exelixis Patent Company LLC, priority 2006, dated 2011).

The structures appear in SMILES notation.

The EC50 is the concentration needed to bring the measured effect to its halfway point.

The test system of this assay is T1, LXR.
T1 construct: fused on or other part: GST fused to the LBD in the FRET assay
Put plainly: Measured EC50 or IC50 for LXR (LXRα and/or LXRβ; assay and subtype not given). The conditions noted are these: IC50 or EC50 class, subtype not specified. The procedure: Measured EC50 or IC50 for LXR, and FXR for Compounds of the Invention
LXR and FXR activities for various compounds of the invention are presented in the following table; those compounds with EC50 or IC50 values <10 μM for at least one of LXRα, LXRβ or FXR are considered to be active. In the following Table, IC50 or EC50 data is represented as follows: A<1 μM, B=1-10 μm, and C>10 μM.
`CS(=O)(=O)c1cccc(-c2ccc(OCc3cc(C(F)(F)F)nn3-c3c(Cl)cccc3Cl)cc2)c1` [Example 891, 1-(2,6-dichlorophenyl)-5-((3′-(methylsulfonyl)biphenyl-4-yloxy)methyl)-3-(trifluoromethyl)-1H-pyrazole]: the EC50 is below 1000 nM.
With `CS(=O)(=O)c1cccc(-c2ccc(OCc3cc(C(F)(F)F)nn3-c3ccccc3Cl)c(Cl)c2)c1` [Example 908, 5-({[3-chloro-3′-(methylsulfonyl)biphenyl-4-yl]oxy}methyl)-1-(2-chlorophenyl)-3-(trifluoromethyl)-1H-pyrazole], the EC50 lay in the range of 1000 to 10000 nM.
`Cc1cc(-c2cccc(S(C)(=O)=O)c2)ccc1OCc1cc(C(F)(F)F)nn1-c1ccccc1Cl` [Example 909, 1-(2-chlorophenyl)-5-({[3-methyl-3′-(methylsulfonyl)biphenyl-4-yl]oxy}methyl)-3-(trifluoromethyl)-1H-pyrazole] came in with an EC50 below 1000 nM.
Then `Cc1cc(OCc2cc(C(F)(F)F)nn2-c2ccccc2Cl)ccc1-c1cccc(S(C)(=O)=O)c1` [Example 910, 1-(2-chlorophenyl)-5-({[2-methyl-3′-(methylsulfonyl)biphenyl-4-]oxy}methyl)-3-(trifluoromethyl)-1H-pyrazole], with 1000 to 10000 nM; and `CS(=O)(=O)c1cccc(-c2ccc(OCc3cc(C(F)(F)F)nn3-c3ccccc3Cl)cc2Cl)c1` [Example 911, 5-({[2-chloro-3′-(methylsulfonyl)biphenyl-4-yl]oxy}methyl)-1-(2-chlorophenyl)-3-(trifluoromethyl)-1H-pyrazole], with below 1000 nM.
`FC(F)(F)c1cc(COc2ccc(-n3cccc3)cc2)n(-c2c(Cl)cccc2Cl)n1` [Example 922, 1-(2,6-dichlorophenyl)-5-({[4-(1H-pyrrol-1-yl)phenyl]oxy}methyl)-3-(trifluoromethyl)-1H-pyrazole] displayed an EC50 below 1000 nM.
`FC(F)(F)c1cc(COc2ccc(-n3ccnc3)cc2)n(-c2c(Cl)cccc2Cl)n1` [Example 923, 1-(2,6-dichlorophenyl)-5-({[4-(1H-imidazol-1-yl)phenyl]oxy}methyl)-3-(trifluoromethyl)-1H-pyrazole] returned an EC50 below 1000 nM.
In turn, `FC(F)(F)c1cc(COc2ccc(-c3ccccc3)cc2)n(-c2c(Cl)cccc2Cl)n1` [Example 924, 5-[(biphenyl-4-yloxy)methyl]-1-(2,6-dichlorophenyl)-3-(trifluoromethyl)-1H-pyrazole] returned an EC50 of 1000 to 10000 nM.
Consider `CS(=O)(=O)c1cccc(-c2ccc(OCc3cc(C(F)(F)F)nn3-c3ccccc3Cl)c(F)c2)c1` [Example 925, 1-(2-chlorophenyl)-5-({[3-fluoro-3′-(methylsulfonyl)biphenyl-4-yl]oxy}methyl)-3-(trifluoromethyl)-1H-pyrazole], for which the EC50 was below 1000 nM.
The same measure for `CS(=O)(=O)c1cccc(-c2ccc(OCc3cc(C(F)(F)F)nn3-c3ccccc3Cl)c(C#N)c2)c1` [Example 926, 4-({[1-(2-chlorophenyl)-3-(trifluoromethyl)-1H-pyrazol-5-yl]methyl}oxy)-3′-(methylsulfonyl)biphenyl-3-carbonitrile]: 1000 to 10000 nM; for `CS(=O)(=O)c1cccc(-c2ccc(NCc3cc(C(F)(F)F)nn3-c3ccccc3Cl)cc2)c1` [Example 928, N-{[1-(2-chlorophenyl)-3-(trifluoromethyl)-1H-pyrazol-5-yl]methyl}-3′-(methylsulfonyl)biphenyl-4-amine]: below 1000 nM; for `COc1cc(-c2ccc(-c3cccc(S(C)(=O)=O)c3)s2)n(-c2ccccc2Cl)n1` [Example 933, 1-(2-chlorophenyl)-3-(methyloxy)-5-{5-[3-(methylsulfonyl)phenyl]-2-thienyl}-1H-pyrazole]: above 10000 nM.
Compound `CC1(C)COC(c2cn(-c3ccc(-c4cccc(S(C)(=O)=O)c4)cc3Cl)c(-c3c(Cl)cccc3Cl)n2)=N1` [Example 934, 2-{1-[3-chloro-3′-(methylsulfonyl)biphenyl-4-yl]-2-(2,6-dichlorophenyl)-1H-imidazol-4-yl}-4,4-dimethyl-4,5-dihydro-1,3-oxazole] came in with an EC50 below 1000 nM.
